Assay results reported in patent US9862726B2, “Opioid receptor modulating oxabicyclo[2.2.2]octane morphinans” (PURDUE PHARMA L.P., priority 2013, dated 2018).
Like-named read-outs stand apart in the source and are kept apart here.

How the values were obtained:
μ-opioid receptor [1] = target: T1, μ-opioid receptor (Homo sapiens (Human), UniProt P35372); assay: μ-opioid receptor [35S]GTPγS functional assay (HEK-293 cells); type: biochemical
Protocol: (§1) [^35S]GTPγS functional assays were conducted using freshly thawed μ-receptor membranes prepared in-house from a cell line expressing recombinant μ opioid receptor in a HEK-293, CHO or U-2 OS cell background, or purchased from a commercial source (Perkin Elmer, Shelton, Conn.; or DiscovRx, Fremont, Calif.). Assay reactions were prepared by sequentially adding the following reagents to binding buffer (100 mM NaCl, 10 mM MgCl2, 20 mM HEPES, pH 7.4) on ice (final concentrations indicated): membrane protein (0.026 mg/mL), saponin ([…]), GDP ([…]) and [^35S]GTPγS (0.20 nM; Perkin Elmer, Shelton, Conn.). The prepared membrane solution (190 μl/well) was transferred to 96-shallow well polypropylene plates containing 10 μl of 20× concentrated stock solutions of the agonist [D-Ala^2, N-methyl-Phe^4 Gly-ol^5]-enkephalin (DAMGO) prepared in dimethyl sulfoxide (DMSO). Plates were incubated for 30 min at about 25° C. with shaking. Reactions were terminated by rapid filtration onto 96-well Unifilter GF/B filter plates (Perkin Elmer, Shelton, Conn.) using a 96-well tissue harvester (Perkin Elmer, Shelton, Conn.) followed by three filtration washes with 200 μl of ice-cold wash buffer (10 mM NaH2PO4, 10 mM Na2HPO4, pH 7.4). Filter plates were subsequently dried at 50° C. for 2-3 hours. BetaScint scintillation cocktail (Perkin Elmer, Shelton, Conn.) was added (50 μl/well) and plates were counted using a Packard Top-Count for 1 min/well. Data were analyzed using the sigmoidal dose-response curve fitting functions in GraphPad PRISM v. 3.0, or an in-house function for non-linear, sigmoidal dose-response curve-fitting. [^35S]GTPγS functional assays can also be conducted using freshly thawed μ-receptor membranes prepared from a cell line expressing recombinant μ opioid receptor in a CHO-K1 cell background.
(§2) μ GTP EC50 is the concentration of a compound providing 50% of the maximal response for the compound at a μ-opioid receptor.
(§3) μ GTP Emax (%) is the maximal effect elicited by a compound relative to the effect elicited by DAMGO, a standard μ agonist.
In TABLE 4, activity response of certain Compounds of the Invention to the μ- and κ-opioid receptors was determined as described above for functional assays using HEK-293 cells.

[2] = target: recombinant human kappa opioid receptor (κ) (Homo sapiens (Human), UniProt P41145); assay: κ-opioid receptor radioligand dose-displacement binding assay (HEK-293 cells)
Protocol: Membranes from HEK-293 cells, CHO cells or U-2 OS cells expressing the recombinant human kappa opioid receptor (κ) were prepared by lysing cells in ice cold hypotonic buffer (2.5 mM MgCl2, 50 mM HEPES, pH 7.4) (10 mL/10 cm dish) followed by homogenization with a tissue grinder/Teflon pestle. Membranes from a cell line naturally expressing kappa opioid receptor can also be used. Membranes were collected by centrifugation at 30,000×g for 15 min at 4° C. and pellets were resuspended in hypotonic buffer to a final concentration of 1-3 mg/mL. Protein concentrations were determined using the BioRad protein assay reagent with bovine serum albumen as standard. Aliquots of κ receptor membranes were stored at −80° C.
Radioligand dose displacement assays used 0.4 nM [^3H]-U69,593 (GE Healthcare, Piscataway, N.J.; 40 Ci/mmole) with 15 μg membrane protein (recombinant κ opioid receptor expressed in HEK 293 cells; in-house prep) in a final volume of 200 μl binding buffer (5% DMSO, 50 mM Trizma base, pH 7.4). Non-specific binding was determined in the presence of 10 μM unlabeled naloxone or U69,593. All reactions were performed in 96-well polypropylene plates for 1 hour at a temperature of about 25° C. Binding reactions were terminated by rapid filtration onto 96-well Unifilter GF/C filter plates (Perkin Elmer, Shelton, Conn.) presoaked in 0.5% polyethylenimine (Sigma). Harvesting was performed using a 96-well tissue harvester (Perkin Elmer, Shelton, Conn.) followed by five filtration washes with 200 μl ice-cold binding buffer. Filter plates were subsequently dried at 50° C. for 1-2 hours. Fifty μl/well scintillation cocktail (Perkin Elmer, Shelton, Conn.) was added and plates were counted in a Packard Top-Count for 1 min/well.
(§4) In TABLE 3, binding affinity of certain Compounds of the Invention to the μ- and κ-opioid receptors was determined as described above using HEK-293 cells.

μ-opioid receptor [3] = target: T1, μ-opioid receptor; assay: μ-opioid receptor radioligand dose-displacement binding assay (HEK-293 cells)
Protocol: Radioligand dose-displacement binding assays for μ-opioid receptors used 0.3 nM [^3H]-diprenorphine (Perkin Elmer, Shelton, Conn.), with […] membrane protein/well in a final volume of 500 μl binding buffer (10 mM MgCl2, 1 mM EDTA, 5% DMSO, 50 mM HEPES, pH 7.4). Reactions were carried out in the absence or presence of increasing concentrations of unlabeled naloxone. All reactions were conducted in 96-deep well polypropylene plates for 2 hours at room temperature. Binding reactions were terminated by rapid filtration onto 96-well Unifilter GF/C filter plates (Perkin Elmer, Shelton, Conn.), presoaked in 0.5% polyethylenimine using a 96-well tissue harvester (Perkin Elmer, Shelton, Conn.) followed by performing three filtration washes with 500 μl of ice-cold binding buffer. Filter plates were subsequently dried at 50° C. for 2-3 hours. BetaScint scintillation cocktail (Perkin Elmer, Shelton, Conn.) was added (50 μl/well), and plates were counted using a Packard Top-Count for 1 min/well. The data were analyzed using the one-site competition curve fitting functions in GraphPad PRISM™ v. 3.0 or higher (San Diego, Calif.), or an in-house function for one-site competition curve-fitting.
as §4

μ-opioid receptor [4] = target: T1, μ-opioid receptor; assay: μ-opioid receptor functional assay (U-2 OS cells); type: biochemical
Protocol: as §1, §2, §3

κ-opioid receptor = κ-opioid receptor (Homo sapiens (Human), UniProt P41145); assay: κ-opioid receptor functional assay (U-2 OS cells); type: biochemical
Protocol: Functional [^35S]GTPγS binding assays were conducted as follows. κ opioid receptor membrane solution was prepared by sequentially adding final concentrations of 0.026 μg/μl κ membrane protein (in-house), 10 μg/mL saponin, 3 μM GDP and 0.20 nM [^35S]GTPγS to binding buffer (100 mM NaCl, 10 mM MgCl2, 20 mM HEPES, pH 7.4) on ice. The prepared membrane solution (190 μl/well) was transferred to 96-shallow well polypropylene plates containing 10 μl of 20× concentrated stock solutions of agonist prepared in DMSO. Plates were incubated for 30 min at a temperature of about 25° C. with shaking. Reactions were terminated by rapid filtration onto 96-well Unifilter GF/B filter plates (Perkin Elmer, Shelton, Conn.) using a 96-well tissue harvester (Packard) and followed by three filtration washes with 200 μl ice-cold binding buffer (10 mM NaH2PO4, 10 mM Na2HPO4, pH 7.4). Filter plates were subsequently dried at 50° C. for 2-3 hours. Fifty μl/well scintillation cocktail (Perkin Elmer, Shelton, Conn.) was added and plates were counted in a Packard Top-Count for 1 min/well.
κ GTP EC50 is the concentration of a compound providing 50% of the maximal response for the compound at a κ receptor.
κ GTP Emax (%) is the maximal effect elicited by a compound relative to the effect elicited by U69,593.
The following TABLE 5 provides results on the activity response of certain Compounds of the Invention at the μ- and κ-opioid receptors determined as described above using U-2 OS cells.

[5] = HEK-293 cells, relative to DAMGO
[6] = U-2 OS cells, read-out: Opioid Receptor μ EC50
[7] = U-2 OS cells, relative to DAMGO
[8] = U-2 OS cells, read-out: Opioid Receptor κ EC50
[9] = U-2 OS cells, relative to U69,593

Molecule: 1-Chlorophenyl-3-((4bR,6S,8aS,9R)-11-(cyclopropylmethyl)-3-methoxy-5,6,7,8,9,10-hexahydro-9,4b-(epiminoethano)-8a,6-(epoxymethano)phenanthren-6-yl)urea [Compound 25]
- EC50 (μ-opioid receptor [1]; HEK-293 cells, read-out: Opioid Receptor μ EC50): 0.0866 ± 0.0115 µM
- Opioid Receptor μ Emax (%) (μ-opioid receptor [1]; [5]): 18.3 ± 0.88%
- Ki [2]: 0.00256 ± 0.00036 µM
- Ki (μ-opioid receptor [3]): 0.00351 ± 0.00045 µM
- EC50 (μ-opioid receptor [4]; [6]): 4.33 ± 0.15 nM
- Opioid Receptor μ Emax (%) (μ-opioid receptor [4]; [7]): 99.7 ± 0.88%
- EC50 (κ-opioid receptor; [8]): 16.1 ± 0.82 nM
- Opioid Receptor κ Emax (%) (κ-opioid receptor; [9]): 121.3 ± 4.67%

Molecule: COc1ccc2c(c1)[C@]13CCN(CC4CC4)[C@H](C2)[C@]12CC[C@@](N(Cc1ccccc1)Cc1ccccc1)(CO2)C3 [Compound 7, (4bR,6S,8aS,9R)—N,N-dibenzyl-11-(cyclopropylmethyl)-3-methoxy-5,6,7,8,9,10-hexahydro-9,4b-(epiminoethano)-8a,6-(epoxymethano)phenanthren-6-amine]
- EC50 (μ-opioid receptor [1]; HEK-293 cells, bound given in μM, read-out: Opioid Receptor μ EC50): > 20 µM
- Emax (μ-opioid receptor [1]; [5]): 5.67 ± 1.86%
- Ki [2]: 0.00535 ± 0.00091 µM
- Ki (μ-opioid receptor [3]): 0.0643 ± 0.0216 µM
- EC50 (μ-opioid receptor [4]; [6]): 26.4 ± 3.96 nM
- Emax (μ-opioid receptor [4]; [7]): 84.3 ± 2.85%
- EC50 (κ-opioid receptor; [8]): 2.99 ± 0.33 nM
- Emax (κ-opioid receptor; [9]): 112 ± 3.93%

Molecule: COc1ccc2c(c1)[C@]13CCN(CC4CC4)[C@H](C2)[C@]12CC[C@@](N(C)C)(CO2)C3 [Compound 28, (4bR,6S,8aS,9R)-11-(cyclopropylmethyl)-3-methoxy-N,N-dimethyl-5,6,7,8,9,10-hexahydro-9,4b-(epiminoethano)-8a,6-(epoxymethano)phenanthren-6-amine]
- EC50 (μ-opioid receptor [1]): 1.92 ± 0.693 µM
- Emax (μ-opioid receptor [1]; [5]): 18.8 ± 1.46%
- EC50 (μ-opioid receptor [4]): 339 ± 31.6 nM
- Emax (μ-opioid receptor [4]; [7]): 68.7 ± 0.67%
- EC50 (κ-opioid receptor): 132 ± 25.7 nM
- Emax (κ-opioid receptor; [9]): 107 ± 2.4%

Molecule: COc1ccc2c(c1)[C@]13CCN(CC4CC4)[C@H](C2)[C@]12CC[C@@](Nc1ccc(C(C)(C)C)cc1)(CO2)C3 [Compound 29, (4bR,6S,8aS,9R)—N-(4-tert-butyl)phenyl-11-(cyclopropylmethyl)-3-methoxy-5,6,7,8,9,10-hexahydro-9,4b-(epiminoethano)-8a,6-(epoxymethano)phenanthren-6-amine]
- EC50 (μ-opioid receptor [1]): > 20 µM
- Emax (μ-opioid receptor [1]; [5]): 7.5 ± 1.55%
- EC50 (μ-opioid receptor [4]): 2.02 ± 0.28 nM
- Emax (μ-opioid receptor [4]; [7]): 43.3 ± 2.4%
- EC50 (κ-opioid receptor): 3.08 ± 0.32 nM
- Emax (κ-opioid receptor; [9]): 113 ± 4.41%

Molecule: COc1ccc2c(c1)[C@]13CCN(CC4CC4)[C@H](C2)[C@]12CC[C@@](Nc1ccccc1)(CO2)C3 [Compound 30, (4bR,6S,8aS,9R)-11-(cyclopropylmethyl)-3-methoxy-N-phenyl-5,6,7,8,9,10-hexahydro-9,4b-(epiminoethano)-8a,6-(epoxymethano)phenanthren-6-amine]
- EC50 (μ-opioid receptor [1]): 0.0836 ± 0.0234 µM
- Emax (μ-opioid receptor [1]; [5]): 20.3 ± 0.67%
- EC50 (μ-opioid receptor [4]): 9.93 ± 0.87 nM
- Emax (μ-opioid receptor [4]; [7]): 69 ± 2.65%
- EC50 (κ-opioid receptor): 0.14 ± 0.039 nM
- Emax (κ-opioid receptor; [9]): 105 ± 3.53%

Molecule: COc1ccc2c(c1)[C@]13CCN(CC4CC4)[C@H](C2)[C@]12CC[C@@](N1CCOCC1)(CO2)C3 [Compound 31, (4bR,6S,8aS,9R)-11-(cyclopropylmethyl)-3-methoxy-6-morpholino-5,6,7,8,9,10-hexahydro-9,4b-(epiminoethano)-8a,6-(epoxymethano)phenanthrene]
- EC50 (μ-opioid receptor [1]): 0.887 ± 0.278 µM
- Emax (μ-opioid receptor [1]; [5]): 9 ± 1.15%
- EC50 (μ-opioid receptor [4]): 147 ± 7.61 nM
- Emax (μ-opioid receptor [4]; [7]): 38.7 ± 2.96%
- EC50 (κ-opioid receptor): 30 ± 7.2 nM
- Emax (κ-opioid receptor; [9]): 103.7 ± 0.33%

Molecule: COc1ccc2c(c1)[C@]13CCN(CC4CC4)[C@H](C2)[C@]12CC[C@@](N1CCCC1)(CO2)C3 [Compound 32, (4bR,6S,8aS,9R)-11-(cyclopropylmethyl)-3-methoxy-6-(pyrrolidin-1-yl)-5,6,7,8,9,10-hexahydro-9,4b-(epiminoethano)-8a,6-(epoxymethano)phenanthrene]
- EC50 (μ-opioid receptor [1]): 1.38 ± 0.234 µM
- Emax (μ-opioid receptor [1]; [5]): 20.7 ± 0.33%
- EC50 (μ-opioid receptor [4]): 255 ± 26.6 nM
- Emax (μ-opioid receptor [4]; [7]): 69 ± 2.89%
- EC50 (κ-opioid receptor): 26.6 ± 5.92 nM
- Emax (κ-opioid receptor; [9]): 104 ± 3.61%

Molecule: COc1ccc2c(c1)[C@]13CCN(CC4CC4)[C@H](C2=O)[C@]12CC[C@](O)(C3)C(=O)O2 [Compound 33, (4bR,6S,8aS,9S)-11-(cyclopropylmethyl)-6-hydroxy-3-methoxy-5,6,7,8-tetrahydro-9,4b-(epiminoethano)-8a,6-(epoxymethano)phenanthrene-10,15(9H)-dione]
- Ki [2]: 3.35 ± 0.325 µM
- Ki (μ-opioid receptor [3]; bound given in μM): > 20 µM

Molecule: COc1ccc2c(c1)[C@]13CCN(CC4CC4)[C@H]([C@@H]2O)[C@]12CC[C@](O)(C3)C(=O)O2 [Compound 34, (4bR,6S,8aS,9R,10R)-11-(cyclopropylmethyl)-6,10-dihydroxy-3-methoxy-5,6,7,8,9,10-hexahydro-9,4b-(epiminoethano)-8a,6-(epoxymethano)phenanthren-15-one]
- Ki ([2]; bound given in μM): > 20 µM
- Ki (μ-opioid receptor [3]; bound given in μM): > 20 µM

Molecule: CN1CC[C@]23C[C@@]4(N)CC[C@@]2(OC4)[C@H]1Cc1ccc(O)cc13 [Compound 35, (4bR,6S,8aS,9R)-6-amino-11-methyl-5,6,7,8,9,10-hexahydro-9,4b-(epiminoethano)-8a,6-(epoxymethano)phenanthren-3-ol]
- EC50 (μ-opioid receptor [1]): 0.291 ± 0.0232 µM
- Emax (μ-opioid receptor [1]; [5]): 50.3 ± 2.33%

Molecule: CN[C@]12CC[C@@]3(OC1)[C@H]1Cc4ccc(O)cc4[C@@]3(CCN1CC1CC1)C2 [Compound 37, (4bR,6S,8aS,9R)-11-(cyclopropylmethyl)-6-(methylamino)-5,6,7,8,9,10-hexahydro-9,4b-(epiminoethano)-8a,6-(epoxymethano)phenanthren-3-ol]
- EC50 (μ-opioid receptor [1]): 0.00344 ± 0.00078 µM
- Emax (μ-opioid receptor [1]; [5]): 19 ± 1%
